Data published in EP4745137A1 (Gluetacs Therapeutics (Shanghai) Co., Ltd., priority 2023, dated 2025).

Experiments:
Type in all cases: cell-based
Details in all cases: 24 hours of compound treatment, 50 nM and 500 nM tested (concentration behind the class not stated)
WEE1 = biological target: T1, WEE1 (Homo sapiens, UniProt P30291+Q96SW2); test: Western-blot assay of substrate protein degradation in hPBMCs, WEE1
T1 construct: endogenous in cells; host or cells: hPBMCs (Milecell Biotechnologies)

IKZF2 = biological target: T2, IKZF2 (Homo sapiens, UniProt Q96SW2+Q9UKS7); test: Western-blot assay of substrate protein degradation in hPBMCs, IKZF2
T2 construct: endogenous in cells; host or cells: hPBMCs (Milecell Biotechnologies)

CK1α = biological target: T3, CK1α (Homo sapiens, UniProt P48729+Q96SW2); test: Western-blot assay of substrate protein degradation in hPBMCs, CK1α
T3 construct: endogenous in cells; host or cells: hPBMCs (Milecell Biotechnologies)

GSPT1 = biological target: T4, GSPT1 (Homo sapiens, UniProt P15170+Q96SW2); test: Western-blot assay of substrate protein degradation in hPBMCs, GSPT1
T4 construct: endogenous in cells; host or cells: hPBMCs (Milecell Biotechnologies)

IKZF3 = biological target: T5, IKZF3 (Homo sapiens, UniProt Q96SW2+Q9UKT9); test: Western-blot assay of substrate protein degradation in hPBMCs, IKZF3
T5 construct: endogenous in cells; host or cells: hPBMCs (Milecell Biotechnologies)

IKZF1 = biological target: T6, IKZF1 (Homo sapiens, UniProt Q13422+Q96SW2); test: Western-blot assay of substrate protein degradation in hPBMCs, IKZF1
T6 construct: endogenous in cells; host or cells: hPBMCs (Milecell Biotechnologies)
T6 sequence (Q13422 whole entry): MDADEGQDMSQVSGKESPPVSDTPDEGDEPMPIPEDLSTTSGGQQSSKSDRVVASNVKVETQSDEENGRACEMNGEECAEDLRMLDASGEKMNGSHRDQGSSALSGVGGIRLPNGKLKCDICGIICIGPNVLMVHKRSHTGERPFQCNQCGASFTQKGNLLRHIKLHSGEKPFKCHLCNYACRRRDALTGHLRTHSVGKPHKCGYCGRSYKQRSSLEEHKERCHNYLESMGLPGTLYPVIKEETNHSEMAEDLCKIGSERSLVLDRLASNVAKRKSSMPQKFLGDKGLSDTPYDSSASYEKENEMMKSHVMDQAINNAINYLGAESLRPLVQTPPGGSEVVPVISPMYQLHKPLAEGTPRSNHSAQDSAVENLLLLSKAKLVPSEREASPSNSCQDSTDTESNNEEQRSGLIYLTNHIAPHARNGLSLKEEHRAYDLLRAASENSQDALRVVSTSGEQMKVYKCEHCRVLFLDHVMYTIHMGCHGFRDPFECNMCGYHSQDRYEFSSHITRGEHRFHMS
T6 sequence (Q96SW2 whole entry): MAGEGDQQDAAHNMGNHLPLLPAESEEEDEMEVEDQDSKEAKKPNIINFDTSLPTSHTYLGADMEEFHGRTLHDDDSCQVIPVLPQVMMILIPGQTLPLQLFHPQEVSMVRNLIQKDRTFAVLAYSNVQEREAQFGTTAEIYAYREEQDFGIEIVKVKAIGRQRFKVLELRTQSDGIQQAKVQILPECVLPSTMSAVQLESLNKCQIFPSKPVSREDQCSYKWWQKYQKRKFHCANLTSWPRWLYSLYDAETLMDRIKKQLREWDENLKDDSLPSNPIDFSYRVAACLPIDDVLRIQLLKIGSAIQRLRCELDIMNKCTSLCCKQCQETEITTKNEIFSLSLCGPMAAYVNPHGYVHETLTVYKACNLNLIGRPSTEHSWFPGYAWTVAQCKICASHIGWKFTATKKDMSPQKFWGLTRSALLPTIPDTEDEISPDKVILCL
T6 sequence (Q16531 whole entry partner): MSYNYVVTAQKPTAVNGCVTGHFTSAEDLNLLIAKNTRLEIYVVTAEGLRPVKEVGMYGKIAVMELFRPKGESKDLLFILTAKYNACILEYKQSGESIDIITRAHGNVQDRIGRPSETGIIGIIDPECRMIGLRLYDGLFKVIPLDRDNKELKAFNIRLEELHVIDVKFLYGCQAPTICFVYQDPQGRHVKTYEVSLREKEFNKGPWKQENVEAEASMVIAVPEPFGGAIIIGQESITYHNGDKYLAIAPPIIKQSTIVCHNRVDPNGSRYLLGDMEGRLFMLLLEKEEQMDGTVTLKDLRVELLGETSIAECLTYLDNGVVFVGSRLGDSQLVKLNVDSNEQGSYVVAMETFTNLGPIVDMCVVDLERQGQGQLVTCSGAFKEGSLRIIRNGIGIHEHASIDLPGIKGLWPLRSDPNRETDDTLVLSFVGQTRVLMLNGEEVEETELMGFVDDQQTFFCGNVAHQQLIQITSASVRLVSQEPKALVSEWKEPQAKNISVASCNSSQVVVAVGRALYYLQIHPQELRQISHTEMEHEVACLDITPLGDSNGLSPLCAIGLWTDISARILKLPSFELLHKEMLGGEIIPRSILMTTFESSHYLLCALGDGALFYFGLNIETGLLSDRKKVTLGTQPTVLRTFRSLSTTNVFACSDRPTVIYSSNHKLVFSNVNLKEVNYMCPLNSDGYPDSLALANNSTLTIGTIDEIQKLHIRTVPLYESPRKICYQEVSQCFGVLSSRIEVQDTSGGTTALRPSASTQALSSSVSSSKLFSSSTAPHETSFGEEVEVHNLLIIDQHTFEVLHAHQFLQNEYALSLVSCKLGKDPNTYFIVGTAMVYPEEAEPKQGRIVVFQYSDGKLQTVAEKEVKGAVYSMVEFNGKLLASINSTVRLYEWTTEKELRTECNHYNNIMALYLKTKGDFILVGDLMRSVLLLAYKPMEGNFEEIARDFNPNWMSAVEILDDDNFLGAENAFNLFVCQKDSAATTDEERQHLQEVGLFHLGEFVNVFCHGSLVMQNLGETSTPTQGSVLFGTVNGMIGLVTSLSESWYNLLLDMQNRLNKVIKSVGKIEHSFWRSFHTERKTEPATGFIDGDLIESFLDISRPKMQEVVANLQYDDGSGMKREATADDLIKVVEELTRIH

T5 sequence (Q9UKT9 whole entry): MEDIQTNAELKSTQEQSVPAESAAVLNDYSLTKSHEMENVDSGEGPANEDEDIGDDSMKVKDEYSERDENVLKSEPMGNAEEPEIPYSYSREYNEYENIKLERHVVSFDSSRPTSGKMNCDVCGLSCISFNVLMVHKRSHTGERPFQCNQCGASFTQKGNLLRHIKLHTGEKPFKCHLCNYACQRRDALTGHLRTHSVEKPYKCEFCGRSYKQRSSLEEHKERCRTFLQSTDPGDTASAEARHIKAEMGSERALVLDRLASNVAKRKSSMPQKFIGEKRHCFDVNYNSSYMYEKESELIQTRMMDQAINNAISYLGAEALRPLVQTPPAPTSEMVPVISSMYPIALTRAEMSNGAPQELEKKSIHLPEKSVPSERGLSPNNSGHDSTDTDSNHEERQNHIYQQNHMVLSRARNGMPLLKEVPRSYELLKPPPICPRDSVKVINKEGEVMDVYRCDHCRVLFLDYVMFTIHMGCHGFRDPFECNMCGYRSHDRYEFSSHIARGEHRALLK
T5 sequence (Q96SW2 whole entry): as the sequence (Q96SW2 whole entry) above
T5 sequence (Q16531 whole entry partner): as the sequence (Q16531 whole entry partner) above
T1 sequence (P30291 whole entry): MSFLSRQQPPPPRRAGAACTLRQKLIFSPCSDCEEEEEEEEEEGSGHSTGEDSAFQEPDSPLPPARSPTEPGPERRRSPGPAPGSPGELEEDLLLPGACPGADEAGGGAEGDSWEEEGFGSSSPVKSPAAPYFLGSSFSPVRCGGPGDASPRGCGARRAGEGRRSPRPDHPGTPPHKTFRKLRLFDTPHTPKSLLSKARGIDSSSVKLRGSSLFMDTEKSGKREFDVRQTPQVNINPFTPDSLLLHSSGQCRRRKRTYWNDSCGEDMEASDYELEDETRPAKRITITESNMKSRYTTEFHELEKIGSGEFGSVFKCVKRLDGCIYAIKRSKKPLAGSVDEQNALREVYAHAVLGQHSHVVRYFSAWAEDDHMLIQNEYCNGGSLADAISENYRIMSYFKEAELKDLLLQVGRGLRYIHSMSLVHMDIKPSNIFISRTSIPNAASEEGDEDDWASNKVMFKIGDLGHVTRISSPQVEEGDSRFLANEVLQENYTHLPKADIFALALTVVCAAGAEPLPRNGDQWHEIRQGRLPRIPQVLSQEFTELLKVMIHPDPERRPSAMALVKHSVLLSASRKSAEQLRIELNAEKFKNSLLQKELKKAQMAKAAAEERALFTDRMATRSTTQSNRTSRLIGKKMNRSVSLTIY
T1 sequence (Q96SW2 whole entry): as the sequence (Q96SW2 whole entry) above
T1 sequence (Q16531 whole entry partner): as the sequence (Q16531 whole entry partner) above
T3 sequence (P48729 whole entry): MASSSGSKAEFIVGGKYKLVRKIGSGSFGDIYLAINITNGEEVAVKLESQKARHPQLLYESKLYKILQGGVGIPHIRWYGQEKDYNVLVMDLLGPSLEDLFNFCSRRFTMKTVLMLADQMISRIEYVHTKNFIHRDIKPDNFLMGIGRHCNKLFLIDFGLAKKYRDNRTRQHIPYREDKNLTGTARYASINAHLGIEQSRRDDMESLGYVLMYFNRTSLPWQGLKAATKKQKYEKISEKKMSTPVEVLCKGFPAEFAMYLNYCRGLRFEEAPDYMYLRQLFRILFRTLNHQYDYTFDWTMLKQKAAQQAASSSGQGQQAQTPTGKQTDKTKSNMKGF
T3 sequence (Q96SW2 whole entry): as the sequence (Q96SW2 whole entry) above
T3 sequence (Q16531 whole entry partner): as the sequence (Q16531 whole entry partner) above
T4 sequence (P15170 whole entry): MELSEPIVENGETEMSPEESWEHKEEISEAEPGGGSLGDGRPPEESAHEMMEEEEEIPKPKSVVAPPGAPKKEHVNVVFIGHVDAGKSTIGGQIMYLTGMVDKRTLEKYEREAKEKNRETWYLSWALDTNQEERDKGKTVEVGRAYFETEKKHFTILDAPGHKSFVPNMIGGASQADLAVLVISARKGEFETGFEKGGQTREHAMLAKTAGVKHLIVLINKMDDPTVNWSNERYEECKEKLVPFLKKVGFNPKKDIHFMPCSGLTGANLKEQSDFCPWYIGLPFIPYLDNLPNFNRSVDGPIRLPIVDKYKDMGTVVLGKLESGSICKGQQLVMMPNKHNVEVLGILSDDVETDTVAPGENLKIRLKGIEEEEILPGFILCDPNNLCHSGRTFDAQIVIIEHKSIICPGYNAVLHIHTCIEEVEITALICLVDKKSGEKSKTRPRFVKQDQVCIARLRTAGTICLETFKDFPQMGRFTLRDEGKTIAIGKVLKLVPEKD
T4 sequence (Q96SW2 whole entry): as the sequence (Q96SW2 whole entry) above
T4 sequence (Q16531 whole entry partner): as the sequence (Q16531 whole entry partner) above

## O=C1CCC(N2C(=O)c3ccc(CN4CC=C(c5cccc(F)c5Cl)CC4)cc3C2=O)C(=O)N1 (stereo not drawn) [GT-06429, 5-((4-(2-chloro-3-fluorophenyl)-3,6-dihydropyridin-1(2H)-yl)methyl)-2-(2,6-dioxopiperidin-3-yl)isoindoline-1,3-dione]
WEE1
  Weel substrate protein remaining %: A (0% ≤ substrate protein remaining % ≤ 80%)
IKZF2
  IKZF2 substrate protein remaining %: A (0% ≤ substrate protein remaining % ≤ 80%)
CK1α
  CK1a substrate protein remaining %: A (0% ≤ substrate protein remaining % ≤ 80%)
GSPT1
  GSPT1 substrate protein remaining %: A (0% ≤ substrate protein remaining % ≤ 80%)
IKZF3
  IKZF3 substrate protein remaining %: A (0% ≤ substrate protein remaining % ≤ 80%)
IKZF1
  IKZF 1 substrate protein remaining %: A (0% ≤ substrate protein remaining % ≤ 80%)

## O=C1CCC(N2C(=O)c3ccc(CN4CCN(c5ccccn5)CC4)cc3C2=O)C(=O)N1 (stereo not drawn) [GT-06521, 2-(2,6-dioxopiperidin-3-yl)-5-((4-(pyridin-2-yl)piperazin-1-yl)methyl)isoindoline-1,3-dione]
WEE1
  Weel substrate protein remaining %: B (80%< substrate protein remaining %≤ 100%)
IKZF2
  IKZF2 substrate protein remaining %: B (80%< substrate protein remaining %≤ 100%)
CK1α
  CK1a substrate protein remaining %: B (80%< substrate protein remaining %≤ 100%)
GSPT1
  GSPT1 substrate protein remaining %: A (0% ≤ substrate protein remaining % ≤ 80%)
IKZF3
  IKZF3 substrate protein remaining %: B (80%< substrate protein remaining %≤ 100%)
IKZF1
  IKZF 1 substrate protein remaining %: B (80%< substrate protein remaining %≤ 100%)

## Cc1cccc(N2CCN(Cc3ccc4c(c3)C(=O)N(C3CCC(=O)NC3=O)C4=O)CC2)n1 (stereo not drawn) [GT-06522, 2-(2,6-dioxopiperidin-3-yl)-5-((4-(6-methylpyridin-2-yl)piperazin-1-yl)methyl)isoindoline-1,3-dione]
WEE1
  Weel substrate protein remaining %: B (80%< substrate protein remaining %≤ 100%)
IKZF2
  IKZF2 substrate protein remaining %: B (80%< substrate protein remaining %≤ 100%)
CK1α
  CK1a substrate protein remaining %: B (80%< substrate protein remaining %≤ 100%)
GSPT1
  GSPT1 substrate protein remaining %: A (0% ≤ substrate protein remaining % ≤ 80%)
IKZF3
  IKZF3 substrate protein remaining %: B (80%< substrate protein remaining %≤ 100%)
IKZF1
  IKZF 1 substrate protein remaining %: B (80%< substrate protein remaining %≤ 100%)

## O=C1CCC(N2C(=O)c3ccc(CN4CCN(c5cccc(Cl)n5)CC4)cc3C2=O)C(=O)N1 (stereo not drawn) [GT-06523, 5-((4-(6-chloropyridin-2-yl)piperazin-1-yl)methyl)-2-(2,6-dioxopiperidin-3-yl)isoindoline-1,3-dione]
WEE1
  Weel substrate protein remaining %: B (80%< substrate protein remaining %≤ 100%)
IKZF2
  IKZF2 substrate protein remaining %: B (80%< substrate protein remaining %≤ 100%)
CK1α
  CK1a substrate protein remaining %: B (80%< substrate protein remaining %≤ 100%)
GSPT1
  GSPT1 substrate protein remaining %: A (0% ≤ substrate protein remaining % ≤ 80%)
IKZF3
  IKZF3 substrate protein remaining %: B (80%< substrate protein remaining %≤ 100%)
IKZF1
  IKZF 1 substrate protein remaining %: A (0% ≤ substrate protein remaining % ≤ 80%)

## O=C1CCC(N2C(=O)c3ccc(CN4CCN(c5ccc(Cl)cn5)CC4)cc3C2=O)C(=O)N1 (stereo not drawn) [GT-06524, 5-((4-(5-chloropyridin-2-yl)piperazin-1-yl)methyl)-2-(2,6-dioxopiperidin-3-yl)isoindoline-1,3-dione]
WEE1
  Weel substrate protein remaining %: B (80%< substrate protein remaining %≤ 100%)
IKZF2
  IKZF2 substrate protein remaining %: B (80%< substrate protein remaining %≤ 100%)
CK1α
  CK1a substrate protein remaining %: B (80%< substrate protein remaining %≤ 100%)
GSPT1
  GSPT1 substrate protein remaining %: A (0% ≤ substrate protein remaining % ≤ 80%)
IKZF3
  IKZF3 substrate protein remaining %: B (80%< substrate protein remaining %≤ 100%)
IKZF1
  IKZF 1 substrate protein remaining %: A (0% ≤ substrate protein remaining % ≤ 80%)

## O=C1CCC(N2C(=O)c3ccc(CN4CCN(c5cc(Cl)ccn5)CC4)cc3C2=O)C(=O)N1 (stereo not drawn) [GT-06525, 5-((4-(4-chloropyridin-2-yl)piperazin-1-yl)methyl)-2-(2,6-dioxopiperidin-3-yl)isoindoline-1,3-dione]
WEE1
  Weel substrate protein remaining %: A (0% ≤ substrate protein remaining % ≤ 80%)
IKZF2
  IKZF2 substrate protein remaining %: A (0% ≤ substrate protein remaining % ≤ 80%)
CK1α
  CK1a substrate protein remaining %: B (80%< substrate protein remaining %≤ 100%)
GSPT1
  GSPT1 substrate protein remaining %: A (0% ≤ substrate protein remaining % ≤ 80%)
IKZF3
  IKZF3 substrate protein remaining %: A (0% ≤ substrate protein remaining % ≤ 80%)
IKZF1
  IKZF 1 substrate protein remaining %: B (80%< substrate protein remaining %≤ 100%)

## O=C1CCC(N2C(=O)c3ccc(CN4CCN(c5ncccc5F)CC4)cc3C2=O)C(=O)N1 (stereo not drawn) [GT-06526, 2-(2,6-dioxopiperidin-3-yl)-5-((4-(3-fluoropyridin-2-yl)piperazin-1-yl)methyl)isoindoline-1,3-dione]
WEE1
  Weel substrate protein remaining %: A (0% ≤ substrate protein remaining % ≤ 80%)
IKZF2
  IKZF2 substrate protein remaining %: A (0% ≤ substrate protein remaining % ≤ 80%)
CK1α
  CK1a substrate protein remaining %: B (80%< substrate protein remaining %≤ 100%)
GSPT1
  GSPT1 substrate protein remaining %: A (0% ≤ substrate protein remaining % ≤ 80%)
IKZF3
  IKZF3 substrate protein remaining %: A (0% ≤ substrate protein remaining % ≤ 80%)
IKZF1
  IKZF 1 substrate protein remaining %: B (80%< substrate protein remaining %≤ 100%)

## O=C1CCC(N2C(=O)c3ccc(CN4CCN(c5cccc(F)n5)CC4)cc3C2=O)C(=O)N1 (stereo not drawn) [GT-06527, 2-(2,6-dioxopiperidin-3-yl)-5-((4-(6-fluoropyridin-2-yl)piperazin-1-yl)methyl)isoindoline-1,3-dione]
WEE1
  Weel substrate protein remaining %: A (0% ≤ substrate protein remaining % ≤ 80%)
IKZF2
  IKZF2 substrate protein remaining %: A (0% ≤ substrate protein remaining % ≤ 80%)
CK1α
  CK1a substrate protein remaining %: B (80%< substrate protein remaining %≤ 100%)
GSPT1
  GSPT1 substrate protein remaining %: A (0% ≤ substrate protein remaining % ≤ 80%)
IKZF3
  IKZF3 substrate protein remaining %: A (0% ≤ substrate protein remaining % ≤ 80%)
IKZF1
  IKZF 1 substrate protein remaining %: B (80%< substrate protein remaining %≤ 100%)

## O=C1CCC(N2C(=O)c3ccc(CN4CCN(c5ccc(F)cn5)CC4)cc3C2=O)C(=O)N1 (stereo not drawn) [GT-06528, 2-(2,6-dioxopiperidin-3-yl)-5-((4-(5-fluoropyridin-2-yl)piperazin-1-yl)methyl)isoindoline-1,3-dione]
WEE1
  Weel substrate protein remaining %: A (0% ≤ substrate protein remaining % ≤ 80%)
IKZF2
  IKZF2 substrate protein remaining %: A (0% ≤ substrate protein remaining % ≤ 80%)
CK1α
  CK1a substrate protein remaining %: B (80%< substrate protein remaining %≤ 100%)
GSPT1
  GSPT1 substrate protein remaining %: A (0% ≤ substrate protein remaining % ≤ 80%)
IKZF3
  IKZF3 substrate protein remaining %: A (0% ≤ substrate protein remaining % ≤ 80%)
IKZF1
  IKZF 1 substrate protein remaining %: B (80%< substrate protein remaining %≤ 100%)

## O=C1CCC(N2C(=O)c3ccc(CN4CCN(c5ncccc5C(F)(F)F)CC4)cc3C2=O)C(=O)N1 (stereo not drawn) [GT-06529, 2-(2,6-dioxopiperidin-3-yl)-5-((4-(3-(trifluoromethyl)pyridin-2-yl)piperazin-1-yl)methyl)isoindoline-1,3-dione]
WEE1
  Weel substrate protein remaining %: A (0% ≤ substrate protein remaining % ≤ 80%)
IKZF2
  IKZF2 substrate protein remaining %: A (0% ≤ substrate protein remaining % ≤ 80%)
CK1α
  CK1a substrate protein remaining %: B (80%< substrate protein remaining %≤ 100%)
GSPT1
  GSPT1 substrate protein remaining %: A (0% ≤ substrate protein remaining % ≤ 80%)
IKZF3
  IKZF3 substrate protein remaining %: A (0% ≤ substrate protein remaining % ≤ 80%)
IKZF1
  IKZF 1 substrate protein remaining %: B (80%< substrate protein remaining %≤ 100%)

## O=C1CCC(N2C(=O)c3ccc(CN4CCN(c5cccc(C(F)(F)F)n5)CC4)cc3C2=O)C(=O)N1 (stereo not drawn) [GT-06530, 2-(2,6-dioxopiperidin-3-yl)-5-((4-(6-(trifluoromethyl)pyridin-2-yl)piperazin-1-yl)methyl)isoindoline-1,3-dione]
WEE1
  Weel substrate protein remaining %: B (80%< substrate protein remaining %≤ 100%)
IKZF2
  IKZF2 substrate protein remaining %: B (80%< substrate protein remaining %≤ 100%)
CK1α
  CK1a substrate protein remaining %: B (80%< substrate protein remaining %≤ 100%)
GSPT1
  GSPT1 substrate protein remaining %: A (0% ≤ substrate protein remaining % ≤ 80%)
IKZF3
  IKZF3 substrate protein remaining %: B (80%< substrate protein remaining %≤ 100%)
IKZF1
  IKZF 1 substrate protein remaining %: B (80%< substrate protein remaining %≤ 100%)

## O=C1CCC(N2C(=O)c3ccc(CN4CCN(c5ccc(C(F)(F)F)cn5)CC4)cc3C2=O)C(=O)N1 (stereo not drawn) [GT-06531, 2-(2,6-dioxopiperidin-3-yl)-5-((4-(5-(trifluoromethyl)pyridin-2-yl)piperazin-1-yl)methyl)isoindoline-1,3-dione]
WEE1
  Weel substrate protein remaining %: B (80%< substrate protein remaining %≤ 100%)
IKZF2
  IKZF2 substrate protein remaining %: B (80%< substrate protein remaining %≤ 100%)
CK1α
  CK1a substrate protein remaining %: B (80%< substrate protein remaining %≤ 100%)
GSPT1
  GSPT1 substrate protein remaining %: A (0% ≤ substrate protein remaining % ≤ 80%)
IKZF3
  IKZF3 substrate protein remaining %: B (80%< substrate protein remaining %≤ 100%)
IKZF1
  IKZF 1 substrate protein remaining %: B (80%< substrate protein remaining %≤ 100%)

## O=C1CCC(N2C(=O)c3ccc(CN4CCN(c5ncc(Cl)cc5Cl)CC4)cc3C2=O)C(=O)N1 (stereo not drawn) [GT-06532, 5-((4-(3,5-dichloropyridin-2-yl)piperazin-1-yl)methyl)-2-(2,6-dioxopiperidin-3-yl)isoindoline-1,3-dione]
WEE1
  Weel substrate protein remaining %: B (80%< substrate protein remaining %≤ 100%)
IKZF2
  IKZF2 substrate protein remaining %: B (80%< substrate protein remaining %≤ 100%)
CK1α
  CK1a substrate protein remaining %: B (80%< substrate protein remaining %≤ 100%)
GSPT1
  GSPT1 substrate protein remaining %: A (0% ≤ substrate protein remaining % ≤ 80%)
IKZF3
  IKZF3 substrate protein remaining %: B (80%< substrate protein remaining %≤ 100%)
IKZF1
  IKZF 1 substrate protein remaining %: B (80%< substrate protein remaining %≤ 100%)
